The structures appear in SMILES notation. Peptide text beside a SMILES is read from it.

Data on two compounds can be found in patent KR20200071421A, “왕귀뚜라미에서 유래한 항균 펩타이드 테레오그릴루신 3 및 그의 조성물” (대한민국(농촌진흥청장), priority 2018, dated 2020).

This series relates to rat erythrocytes. The series is described as follows: Cytotoxicity to rat erythrocytes (hemolysis, absorbance 550 nm). The settings on record: for % 렛 적혈구 파괴능: 37 ℃, 30 min, 0.1 % Triton X-100 = 100 %. It counts as cell-based.

Regarding `CC[C@H](C)[C@H](NC(=O)[C@H](Cc1ccccc1)NC(=O)[C@H](Cc1ccccc1)NC(=O)[C@H](CC(C)C)NC(=O)[C@H](CCCCN)NC(=O)[C@H](CC(N)=O)NC(=O)[C@H](CCCCN)NC(=O)[C@H](Cc1c[nH]c2ccccc12)NC(=O)[C@H](Cc1ccccc1)NC(=O)[C@@H](N)CCSC)C(=O)N[C@H](C(=O)N[C@@H](CCCCN)C(=O)N[C@@H](CCCCN)C(N)=O)C(C)C` [Teleogryllusine 3, MFWKNKLFFIVKK-NH2] (H-MFWKNKLFFIVKK-NH2), the “% 렛 적혈구 파괴능” value is on record as 0% (12.5 ㎍/ml peptide); 0.09% (25 ㎍/ml peptide); 0.28% (50 ㎍/ml peptide); 0% (100 ㎍/ml peptide); 1.22% (200 ㎍/ml peptide). Moreover, for the setting “concentrations up to 200 ㎍/ml”, the “erythrocyte lysis, result in words” value is given as “파괴능이 미미함”.

On to `CC[C@H](C)[C@H](NC(=O)CN)C(=O)NCC(=O)N[C@@H](C)C(=O)N[C@H](C(=O)N[C@@H](CC(C)C)C(=O)N[C@@H](CCCCN)C(=O)N[C@H](C(=O)N[C@@H](CC(C)C)C(=O)N[C@H](C(=O)N[C@H](C(=O)NCC(=O)N[C@@H](CC(C)C)C(=O)N1CCC[C@H]1C(=O)N[C@@H](C)C(=O)N[C@@H](CC(C)C)C(=O)N[C@H](C(=O)N[C@@H](CO)C(=O)N[C@@H](Cc1c[nH]c2ccccc12)C(=O)N[C@H](C(=O)N[C@@H](CCCCN)C(=O)N[C@@H](CCCNC(=N)N)C(=O)N[C@@H](CCCCN)C(=O)N[C@@H](CCCNC(=N)N)C(=O)N[C@@H](CCC(N)=O)C(=O)N[C@@H](CCC(N)=O)C(N)=O)[C@@H](C)CC)[C@@H](C)CC)[C@@H](C)O)[C@@H](C)O)C(C)C)C(C)C` [멜리틴], for which the “% 렛 적혈구 파괴능” value is given as 75.8% (12.5 ㎍/ml peptide); 83.1% (25 ㎍/ml peptide); 89.8% (50 ㎍/ml peptide); 88.3% (100 ㎍/ml peptide); 91.4% (200 ㎍/ml peptide). Moreover, the “cytotoxicity to erythrocytes, result in words” value (even at low concentrations) is listed as “높은 세포 독성”.
